Laboratory results taken from doi:10.1101/2023.10.20.563248v1 (biorxiv, 2023).

Legend:
[1] = molecular target: MST2 (full-length, NanoLuc fusion) (Homo sapiens, UniProt Q13188); test: NanoBRET tracer displacement, HEK293T; format: cell-based; settings: intact cells; […] °C, […] h; competitive with tracer
[2] = molecular target: MST1 (full-length, NanoLuc fusion) (Homo sapiens, UniProt Q13043); test: NanoBRET tracer displacement, HEK293T; format: cell-based; settings: intact cells; […] °C, […] h; competitive with tracer
[3] = molecular target: MST4 (full-length, NanoLuc fusion) (Homo sapiens, UniProt Q9P289); test: NanoBRET tracer displacement, HEK293T; format: cell-based; settings: intact cells; […] °C, […] h; competitive with tracer
[4] = molecular target: MST3 (full-length, NanoLuc fusion) (Homo sapiens, UniProt Q9Y6E0); test: cell-based
MST3 (full-length, NanoLuc fusion), sequence (Q9Y6E0 whole entry, the tested form may be a part): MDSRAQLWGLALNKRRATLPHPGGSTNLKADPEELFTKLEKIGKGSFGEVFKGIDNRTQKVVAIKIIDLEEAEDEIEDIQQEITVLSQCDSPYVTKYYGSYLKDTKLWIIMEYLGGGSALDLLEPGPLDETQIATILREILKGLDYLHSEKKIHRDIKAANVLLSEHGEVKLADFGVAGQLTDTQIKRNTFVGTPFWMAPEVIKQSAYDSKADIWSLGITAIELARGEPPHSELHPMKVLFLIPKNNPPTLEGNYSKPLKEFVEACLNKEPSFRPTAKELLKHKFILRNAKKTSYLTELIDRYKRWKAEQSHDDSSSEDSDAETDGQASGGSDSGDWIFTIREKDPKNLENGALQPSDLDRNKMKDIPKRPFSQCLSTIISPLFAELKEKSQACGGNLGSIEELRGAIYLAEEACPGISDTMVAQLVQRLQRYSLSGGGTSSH

MST2 (full-length, NanoLuc fusion), sequence (Q13188 whole entry, the tested form may be a part): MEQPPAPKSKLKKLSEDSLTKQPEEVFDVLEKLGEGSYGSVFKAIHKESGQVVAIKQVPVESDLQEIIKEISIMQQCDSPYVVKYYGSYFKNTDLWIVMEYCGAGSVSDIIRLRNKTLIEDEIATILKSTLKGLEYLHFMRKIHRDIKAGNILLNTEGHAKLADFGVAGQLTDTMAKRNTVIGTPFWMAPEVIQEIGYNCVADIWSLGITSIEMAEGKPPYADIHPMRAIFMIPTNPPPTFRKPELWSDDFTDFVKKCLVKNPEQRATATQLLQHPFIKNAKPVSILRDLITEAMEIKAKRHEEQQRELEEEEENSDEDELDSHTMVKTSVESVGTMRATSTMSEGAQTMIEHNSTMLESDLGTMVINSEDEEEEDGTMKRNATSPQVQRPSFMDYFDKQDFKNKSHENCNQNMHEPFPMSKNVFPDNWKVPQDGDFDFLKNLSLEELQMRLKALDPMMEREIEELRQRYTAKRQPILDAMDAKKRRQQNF
MST1 (full-length, NanoLuc fusion), sequence (Q13043 whole entry, the tested form may be a part): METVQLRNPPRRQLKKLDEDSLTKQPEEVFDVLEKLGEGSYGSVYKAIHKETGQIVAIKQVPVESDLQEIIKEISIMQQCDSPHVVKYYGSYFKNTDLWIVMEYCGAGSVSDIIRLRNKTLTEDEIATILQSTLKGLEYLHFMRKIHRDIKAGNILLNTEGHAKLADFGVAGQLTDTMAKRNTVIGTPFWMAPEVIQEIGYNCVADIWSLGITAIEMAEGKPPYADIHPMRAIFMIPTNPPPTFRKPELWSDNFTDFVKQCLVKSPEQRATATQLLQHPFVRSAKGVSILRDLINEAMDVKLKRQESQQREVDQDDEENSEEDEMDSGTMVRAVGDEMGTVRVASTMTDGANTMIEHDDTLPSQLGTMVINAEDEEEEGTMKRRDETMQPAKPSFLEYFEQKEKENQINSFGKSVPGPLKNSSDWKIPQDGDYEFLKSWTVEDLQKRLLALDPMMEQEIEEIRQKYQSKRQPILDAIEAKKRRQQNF
MST4 (full-length, NanoLuc fusion), sequence (Q9P289 whole entry, the tested form may be a part): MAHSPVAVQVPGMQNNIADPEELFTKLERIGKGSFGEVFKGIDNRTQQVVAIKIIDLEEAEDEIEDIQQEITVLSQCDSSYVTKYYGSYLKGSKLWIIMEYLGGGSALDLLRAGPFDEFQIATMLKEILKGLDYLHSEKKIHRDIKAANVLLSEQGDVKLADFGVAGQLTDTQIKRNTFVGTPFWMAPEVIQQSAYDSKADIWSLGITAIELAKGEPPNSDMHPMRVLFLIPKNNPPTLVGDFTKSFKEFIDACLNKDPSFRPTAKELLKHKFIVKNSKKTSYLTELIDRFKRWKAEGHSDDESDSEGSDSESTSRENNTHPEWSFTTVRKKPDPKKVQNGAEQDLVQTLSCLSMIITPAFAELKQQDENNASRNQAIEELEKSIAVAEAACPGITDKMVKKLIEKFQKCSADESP

EC50 [3]	EC50 [4]	Structure (SMILES)	EC50 [1]	EC50 [2]
–	–	N#CCc1ccc(Nc2nccc(Nc3cc(C4CC4)[nH]n3)n2)cc1 [compound 1, 1]	110 nM	200 nM
2400 nM	1800 nM	O=C1NCCCCCCNc2nc(c3ccccc3n2)Nc2cc1[nH]n2 [21e, (Z)-3^1H-2,5,12-triaza-1(4,2)-quinazolina-3(3,5)-pyrazolacyclododecaphan-4-one]	–	–
